The source of these data is patent US20090012052A1, “METHOD FOR TREATING ER+ BREAST CANCER” (Ore Pharmaceuticals Inc., priority 2006, published 2009).

Entries after “also recorded” stand apart in the source; their conditions may differ.

In one test the test system is ER. Conditions: T47D (ER+, PR+) cells; cited from earlier work.
The subject of a further test is PR. The conditions noted are these: T47D (ER+, PR+) cells; cited from earlier work.
Test [1] relates to T47D cells. Conditions: cited from earlier work.
Test [2] concerns T47D (human ER+ breast cancer cell line) xenografts. Put plainly: Growth of ER+ breast cancer cell line (T47D) xenografts in mice. Conditions: NODscid mice with estrogen pellet; p.o. once daily 3-5 weeks; candesartan cilexetil 10/30/100, irbesartan 30/100/300, tamoxifen 0.1/0.3/1.0 mg/kg. The format is in vivo. The method, then:
Female NODscid mice of age 5-6 weeks received a subcutaneous estrogen pellet implant (1.7 mg). Twenty four hours after estrogen pellet implantation, the mice received tumor implantation by subcutaneous injection of T47D cells to the flank (approximately 2.5×10^6 cells/mouse). The mice were ear-notched for identification and housed 4 animals per cage. The tumor implantation site was palpated up to 3 times weekly to monitor tumor growth. One hundred animals in which tumor implantation was successful (7-12 days after injection) were randomized to ten treatment groups, 10 animals per group:
Tumors were measured 3 times weekly using digital calipers. Body weight was measured twice weekly. Clinical observations were conducted weekly. At the conclusion of the study or when mice attained a maximum tumor burden of about 3.0 cm^3 or about 10% of body weight, the mice were sacrificed, tumors were harvested and a terminal blood sample was collected.

In test [3] the test system is T47D cells. Put plainly: Cell proliferation assay (RT-CES impedance), ER+ cell line T47D. The class given is cell-based, human. The conditions noted are these: for Effect on Ang II-induced growth / Effect on Ang II-induced cell proliferation: T47D. On the procedure:
(§1) Unless otherwise indicated, cell proliferation assays described in Examples 2-5 were performed using a Real-Time Cell Electronic Sensing (RT-CES™ 96×) instrument from ACEA Bioscience (San Diego, Calif.). This instrument utilizes an electronic readout (impedance) to non-invasively quantify adherent cell proliferation and viability in real time.
(§2) Cells were seeded in 96-well microtiter plates containing microelectronic sensor arrays (96E plates; ACEA). Cells were maintained in RPMI 1640 (Invitrogen, Carlsbad, Calif.) supplemented with 10% fetal bovine serum (FBS) (Hyclone, Logan, Utah) and were cultured at 37° C. in a humidified atmosphere containing 5% CO2. For proliferation assays, cells were seeded (20,000 cells/well), allowed to attach and grown overnight in standard growth medium. Cells were then serum-starved for 8 hours prior to the proliferation assay in presence or absence of test compound(s). The proliferation response was continuously monitored by measuring the impedance change in each well for the indicated number of hours. Data are expressed as cell index (CI) change relative to time in culture, reflecting measured changes in electrical impedance. Each value shown is an average of 6 wells. Where shown, statistical analysis was performed by calculation of standard deviation and P values were generated by a Student's two-tailed t-test.
(§3) T47D (American Type Culture Collection, Manassas, Va. (ATCC) cat. HTB-133) is an ER+ cell line derived from human mammary gland ductal carcinoma. Other ER+ cell lines used in studies reported herein include ZR-75 and HCC70. HCC1143 (ATCC cat. CRL-2321) is an ER− cell line also derived from human mammary gland ductal carcinoma.
(§4) Following the 8 hour starvation phase, either Ang II (Sigma-Aldrich), 500 nM, or vehicle control was added to the cell culture. […] Ang II also stimulated proliferation of ER+ cell lines HCC70, by approximately 30%, and ZR-75, by approximately 35%, relative to vehicle control (data not shown).
(§5) A cell proliferation assay procedure was followed as described in Example 2. Following the 8 hour starvation phase, either Ang II (Sigma-Aldrich), 500 nM, with or without the AT1 receptor antagonist telmisartan, 1.25 μM or 5 μM, or vehicle control was added to the cell culture.
(§6) A cell proliferation assay procedure was followed as described in Example 2. Following the 8 hour starvation phase, either Ang II (Sigma-Aldrich), 500 nM, with or without the AT1 receptor antagonist candesartan, 5 μM, or vehicle control was added to the cell culture.
(§7) A cell proliferation assay procedure was followed as described in Example 2. Following the 8 hour starvation phase, either Ang II (Sigma-Aldrich), 500 nM, with or without the AT1 receptor antagonist irbesartan, 5 μM, or vehicle control was added to the cell culture.
A cell proliferation assay was conducted by a procedure substantially as described in Example 2, using the ER+ human breast cancer cell line T47D. Following an eight-hour serum starvation phase, test substance was added to the cell culture to provide each of the following treatments: […]

The test system of a further test is HCC1143 cells. Description: Cell proliferation assay (RT-CES impedance), ER- cell line HCC1143. The format is cell-based, human. Conditions: for Effect on cell proliferation: HCC1143. On the procedure:
as §1, §2, §3, §4, §5, §6, §7

Test [4] concerns cells cultured from invasive ductal carcinomas. Conditions: cited from earlier work.
Test [5] relates to breast cancer epithelial cell line MCF-7. Conditions: cited from earlier work.
The conditions of test [6]: administered for 5 years; women having risk factors; cited from earlier work.
The test system of another test is HCC1937 cells. Put plainly: Cell proliferation assay (RT-CES impedance), cell line HCC1937. The class given is cell-based, human. On the procedure:
as §1
as §2, with “t-test. […]” for “t-test.”

In a further test the test system is ZR-75 cells. Description: Cell proliferation assay (RT-CES impedance), ER+ cell line ZR-75. The class given is cell-based, human. The method, then: as §1
as §2, with “t-test. […]” for “t-test.”

A further test has as its system HCC38 cells. Put plainly: Cell proliferation assay (RT-CES impedance), cell line HCC38. The class given is cell-based, human. The method, then: as §1
as §2, with “t-test. […]” for “t-test.”

In another test the test system is HCC1395 cells. Description: Cell proliferation assay (RT-CES impedance), cell line HCC1395. The format is cell-based, human. On the procedure:
as §1
as §2, with “t-test. […]” for “t-test.”

For the next test, the system named is HCC1954 cells. Put plainly: Cell proliferation assay (RT-CES impedance), cell line HCC1954. The format is cell-based, human. On the procedure: as §1
as §2, with “t-test. […]” for “t-test.”

The next test has as its system T47D cell line. Conditions: cited from earlier work.
Another test deals with HCC70 cells. Put plainly: Cell proliferation assay (RT-CES impedance), ER+ cell line HCC70. The format is cell-based, human. The method, then: as §1
as §2, with “t-test. […]” for “t-test.”

[7] abbreviates: Ang II 500 nM with AT1 receptor antagonist 5 μM.
Setting [8] is: Ang II 500 nM with AT1 receptor antagonist 5 μM, data not shown.
[9] abbreviates: Ang II 500 nM with telmisartan 1.25 μM or 5 μM.

Regarding `C[C@H](CS)C(=O)N1CCC[C@H]1C(=O)O` [Captopril], the ER protein concentration result with ER is reported as “reduced”. In the test with PR, the PR protein concentration entry is listed as “increased”. Moreover, in the test on T47D cells [1], the “[3H]thymidine incorporation (an index of cell proliferation)” value is “inhibited”.
Consider `CCOc1nc2cccc(C(=O)OC(C)OC(=O)OC3CCCCC3)c2n1Cc1ccc(-c2ccccc2-c2nnn[nH]2)cc1` (centres unmarked) [candesartan cilexetil], for which the “Growth in tumor volume” value in test [2] was “reduced in a dose-dependent fashion”.
Consider `CCOc1nc2cccc(C(=O)O)c2n1Cc1ccc(-c2ccccc2-c2nnn[nH]2)cc1` [candesartan, 2-ethoxy-1-[4-[2-(1H-tetrazol-5-yl)phenyl]benzyl]-7-benzimidazole-carboxylic acid], for which, in the test with T47D cells [3] (setting [7]), the “Effect on Ang II-induced growth” value is “significantly inhibited”. Also, the “Effect on cell proliferation” value with HCC1143 cells (setting [8]) is “No effects”.
For the molecule `CCCCC1=NC2(CCCC2)C(=O)N1Cc1ccc(-c2ccccc2-c2nnn[nH]2)cc1` [irbesartan, 2-n-butyl-4-spirocyclopentane-1-[(2′-(tetrazol-5-yl)bipheny-4-yl)methyl]-2-imidazolin-5-one], the “Growth in tumor volume” value in test [2] is “the lowest dose tested (30 mg/kg) appeared to give the greatest effect”. In the test on T47D cells [3] (setting [7]), the “Effect on Ang II-induced growth” value was “significantly inhibited”. Moreover, the “Effect on Ang II-induced cell proliferation” value with T47D cells [3] (irbesartan 5 μM + Ang II 500 nM) was “reversed the Ang II effect”. Further, the “Effect on cell proliferation” value in the test on HCC1143 cells (setting [8]) was “No effects”.
Take `NCCCC[C@H](N[C@@H](CCc1ccccc1)C(=O)O)C(=O)N1CCC[C@H]1C(=O)O` [lisinopril]: in the test on ER, the ER protein concentration result is reported as “No such effects”. The PR protein concentration result in the test on PR is “No such effects”. Moreover, in the test with T47D cells [1], the “[3H]thymidine incorporation (an index of cell proliferation)” value is “No such effects”.
Take `CCCCc1nc(Cl)c(CO)n1Cc1ccc(-c2ccccc2-c2nnn[nH]2)cc1` [losartan, 2-n-butyl-4-chloro-5-hydroxymethyl-1-[[2′-(1H-tetrazol-5-yl)biphenyl-4-yl]methyl]imidazole]: in [4], the “Effect on Ang II-stimulated proliferation” value was “blocked”. For the same molecule, the “Effect on Ang II proliferative effect” value in test [5] is listed as “blocked”.
With `CC/C(=C(\c1ccccc1)c1ccc(OCCN(C)C)cc1)c1ccccc1` [tamoxifen], in test [2], the “Growth in tumor volume” value is “reduced in a dose-dependent fashion”. Also, the “Effect on Ang II-induced cell proliferation” value in the test on T47D cells [3] (tamoxifen 7.5 μM + Ang II 500 nM) is “reduced cell proliferation to a level lower than that of vehicle control”. Moreover, the “Reduction of incidence of invasive breast cancer” value in [6] is reported as roughly 50%.
For the molecule `CCCc1nc2c(C)cc(-c3nc4ccccc4n3C)cc2n1Cc1ccc(-c2ccccc2C(=O)O)cc1` [telmisartan, 4′-[[4-methyl-6-(1-methyl-2-benzimidazolyl)-2-propyl-1-benzimidazol-yl]methyl]-2-biphenylcarboxylic acid], in the test with T47D cells [3] (setting [9]), the “Effect on Ang II-induced growth” value was “significantly inhibited”. Also, in the test with HCC1143 cells (setting [9]), the “Effect on cell proliferation” value is on record as “No effects”.
As for “Ang II: peptide angiotensin II, a major regulator of blood pressure and cardiovascular homeostasis (Sigma-Aldrich) (DRVYIHPF; Angiotensin-2; UniProt P01019 25-32, looked up)”, the “Ang II proliferation response” value was “negative” with HCC1937 cells; “positive” in the test with ZR-75 cells (cell line ZR-75); “positive” in the test on T47D cells [3] (cell line T47D); “negative” with HCC1143 cells (cell line HCC1143); “negative” in the test on HCC38 cells; “negative” with HCC1395 cells. The “Ang II proliferation response” value with HCC1954 cells is reported as “negative”; in the test on HCC70 cells (cell line HCC70), “positive”. Also, the “Stimulation of proliferation relative to vehicle control” value is “approximately 35%” in the test on ZR-75 cells (ZR-75 (ER+), Ang II 500 nM, data not shown) and “approximately 30%” with HCC70 cells (HCC70 (ER+), Ang II 500 nM, data not shown). Also, the “Effect of Ang II on cell growth/proliferation” value in the test on T47D cells [3] (T47D (ER+), Ang II 500 nM vs vehicle control, after 8 h serum starvation) was “significantly stimulated growth; also recorded: substantial increase in cell proliferation”; in the test with HCC1143 cells (HCC1143 (ER-), Ang II 500 nM vs vehicle control), “No effects”. For the same molecule, the “Proliferation stimulated by Ang II” value in test [4] (ER and PR positive) is “stimulated in a dose-dependent manner”. Also, in test [5], the “Proliferative effect of Ang II” value is recorded as “dose-dependent proliferative effect”. In the test with T47D cell line, the “Stimulation of cell growth by Ang II” value is “significant stimulation of cell growth”.
